Where only a bound is given, the exact number is not on record here.

In test [1] the test system is phosphorylation of ERK, KRAS G12C in NCI-H358 cells. In words: pERK inhibition assay, G12C. It is filed as cell-based, human. Conditions: Homo sapiens; NCI-H358, 4 hours of incubation. The procedure:
(§1) This assay is to measure the ability of test compounds in inhibiting the phosphorylation of ERK, the downstream signaling of KRAS G12C in NCI-H358 cells, KRAS G12D in AGS cells, and KRAS G12V in SW620. NCI-H358 (ATCC-CRL5807) cells, AGS (ATCC-CRL-1739) cells, SW620 (ATCC-CCL-227) cells were all grown and maintained using RPMI-1640 medium (Thermo Fisher Scientific) with 10% fetal bovine serum and 1% penicillin/streptomycin. On the day prior to compound addition, cells were plated in tissue culture-treated 96 well plates (Corning-3699) at a density of 30,000 cell/well, 20,000 cell/well, 30,000 cell/well for NCI-H358, AGS and SW620 respectively, and allowed for attachment overnight. Diluted compounds were then added in a final concentration of 0.5% DMSO. After 4 hours of incubation, the medium was removed, 100 μL of 4% formaldehyde was added, and the assay plates were incubated at room temperature for 20 minutes. The plates were then washed once with phosphate buffered saline (PBS), and permeabilized with 100 μL of chilled methanol for 10 minutes. Non-specific antibody binding to the plates was blocked using 50 μL 1×BSA blocking buffer (Thermo-37520, 10-fold dilution by Phosphate-Buffered Saline Tween (PBST) for at least 1 hour at room temperature.
(§2) The amount of phosphor-ERK was determined using an antibody specific for phosphorylated form of ERK. Primary antibody (pERK, CST-4370, Cell Signaling Technology) was diluted 1:300 in blocking buffer, with 50 μL aliquoted to each well, and incubated overnight at 4° C. Cells was washed five times for 5 minutes with PBST. Secondary antibody (HRP-linked anti-rabbit IgG, CST-7074, Cell Signaling Technology) was diluted 1:1000 in blocking buffer, and 50 μL was added to each well and incubated 1-2 hrs at room temperature. Cells was washed 5 times for 5 minutes with PBST, 100 μL TMB ELISA substrate (abcam-ab171523) were added and gently shake for 20 minutes. 50 μL stop solution (abcam-ab171529) were added, and then read the signal (OD450) by EnVision.
(§3) IC50 was determined by fitting a 4-parameter sigmoidal concentration response model.

For test [2], the system named is phosphorylation of ERK, KRAS G12D in AGS cells. In words: pERK inhibition assay, G12D. It is filed as cell-based, human. Conditions: Homo sapiens, 4 hours of incubation. The procedure:
as §1, §2, §3

In test [3] the test system is phosphorylation of ERK, KRAS G12V in SW620. In words: pERK inhibition assay, G12V. It is filed as cell-based, human. Conditions: Homo sapiens, SW-620; SW620, 4 hours of incubation. The procedure:
as §1, §2, §3

The test system of test [4] is NCI-H358 cells (KRAS G12C). In words: Cell viability assay, G12C. It counts as cell-based, human. To be noted: Homo sapiens; NCI-H358, 72 hrs, Cell Counting Kit-8. The procedure:
(§4) The purpose of this cellular assay was to determine the effects of test compounds on the proliferation of human cancer cell lines NCI-H358 (ATCC-CRL5807) cells, AGS (ATCC-CRL-1739) cells, SW620 (ATCC-CCL-227) over a 3-day treatment period by quantifying the amount of NADPH present at endpoint using Cell Counting Kit-8.
(§5) Cells were seeded at 5,000 cells/well (NCI-H358), 2,000 cells/well (AGS) 2,000 cells/well (SW620) in 96-well assay plates (Corning-3699) and incubated overnight. On the day of the assay, diluted compounds were then added in a final concentration of 0.5% DMSO. After 72 hrs incubation, a tenth of the volume of cell counting kit 8 (Dnjindo-CK04) was added into each well. Read the signal (OD450 minus OD650) using EnVision after 2 hrs incubation. IC50 was determined by fitting a 4-parameter sigmoidal concentration response model.

Another test concerns AGS cells (KRAS G12D). In words: Cell viability assay, G12D. It counts as cell-based, human. Conditions: Homo sapiens, 72 hrs, Cell Counting Kit-8. The procedure: as §4, §5
(In general: Tetrazolium assays rely on reduction of a dye to a coloured formazan, in cell work by metabolically active cells.)

In a further test the test system is SW620 cells (KRAS G12V). In words: Cell viability assay, G12V. It is filed as cell-based, human. To be noted: Homo sapiens, SW-620; SW620, 72 hrs, Cell Counting Kit-8. The procedure: as §4, §5
The next test has as its target T1, KRAS G12C-BRAF complex (Homo sapiens, UniProt P01116+P62937, G12C).
T1 construct: expressed in transfected cells
In words: KRAS G12C-BRAF NanoBit assay in HEK293 cells. It is filed as cell-based. To be noted: HEK293 stable cell pool, 3 hours of incubation. The procedure:
This assay is to measure the ability of tested compounds in disruption of the KRAS G12C-BRAF complex at the cellular level, we established the NanoBit cellular assay in mammalian HEK293 (ATCC) cells. HEK293 cells were grown and maintained using DMEM medium (Thermo Fisher Scientific) with 10% fetal bovine serum and 1% penicillin/streptomycin. Both KRAS G12C and BRAF RBD were cloned into the NanoBit vectors ([…] vectors system, Promega) with the orientations SmBit-KRAS G12C and BRAF RBD-LgBit, respectively, and co-transfected into HEK293 cells. Cells were then selected with 100 μg/mL Hygromycin B (10687010, Thermo Fisher) and Blasticidin (5 μg/mL) for 4 weeks to get the stable cell pool. On the day of the assay, 75 nL of compound solution was presented in a 384-well assay plate as a 16-point 3-fold dilution starting from a final concentration of 30 μM in DMSO. Then cells were seeded at 10,000 cells/25 μL/well in a 384-well plate. After 3 hours of incubation, 6 μL of volume of Nano-Glo® Live Cell Substrate (Promega) was added into each well. Monitor luminescence using ultra384 model in Envision at 20 minutes. Compounds that facilitate disruption of the KRAS G12C-BRAF RBD complex were identified as those eliciting a decrease of luminescence relative to DMSO control wells.

T1 sequence (P01116 1-188 isoform P01116-2 G12C): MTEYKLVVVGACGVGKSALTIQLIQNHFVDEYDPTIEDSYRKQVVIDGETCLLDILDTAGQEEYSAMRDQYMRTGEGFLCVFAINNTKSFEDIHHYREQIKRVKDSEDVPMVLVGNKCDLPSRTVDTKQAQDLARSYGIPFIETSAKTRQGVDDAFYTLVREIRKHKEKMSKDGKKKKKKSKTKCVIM
T1 sequence (P62937 whole entry): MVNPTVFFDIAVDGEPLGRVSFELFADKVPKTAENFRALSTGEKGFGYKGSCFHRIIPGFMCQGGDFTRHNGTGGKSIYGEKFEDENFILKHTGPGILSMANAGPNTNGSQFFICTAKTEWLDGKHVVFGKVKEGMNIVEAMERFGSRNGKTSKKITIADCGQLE

As to `CCn1c(-c2cc(N3CCN(CC(F)(F)F)CC3)cnc2[C@H](C)OC)c2c3cc(c(F)cc31)-c1csc(n1)C[C@H](NC(=O)[C@H](C(C)C)N(C)C(=O)N1CC(C#CC(F)(F)F)C1)C(=O)N1CCC[C@H](N1)C(=O)OCC(C)(C)C2` (atropisomer, axis not shown; (M)) [Example 15, N-[(1S)-1-[[(7S,13S)-21-ethyl-24-fluoro-(20M)-20-[2-[(1S)-1-methoxyethyl]-5-[4-(2,2,2-trifluoroethyl)piperazin-1-yl]-3-pyridyl]-17,17-dimethyl-8,14-dioxo-15-oxa-4-thia-9,21,27,28-tetrazapentacyclo[17.5.2.1^2,5.1^9,13.0^22,26]octacosa-1(25),2,5(28),19,22(26),23-hexaen-7-yl]carbamoyl]-2-methyl-propyl]-N-methyl-3-(3,3,3-trifluoroprop-1-ynyl)azetidine-1-carboxamide], the IC50 in test [1] is 0.02 µM; in test [2], greater than 10 µM; in test [3], 0.021 µM.

As for `CO[C@@H](C)c1ncc(N2CCN(C)CC2)cc1-c1c2c3cc(c(F)cc3n1CC(F)(F)F)-c1csc(n1)C[C@H](NC(=O)[C@H](C(C)C)N(C)C(=O)[C@H]1C[C@@H](C#Cc3nccc(C(F)(F)F)n3)C1)C(=O)N1CCC[C@H](N1)C(=O)OCC(C)(C)C2` (atropisomer, axis not shown; (M)) [Example 16, cis-N-[(1S)-1-[[(7S,13S)-24-fluoro-(20M)-20-[2-[(1S)-1-methoxyethyl]-5-(4-methylpiperazin-1-yl)-3-pyridyl]-17,17-dimethyl-8,14-dioxo-21-(2,2,2-trifluoroethyl)-15-oxa-4-thia-9,21,27,28-tetrazapentacyclo[17.5.2.1^2,5.1^9,13.0^22,26]octacosa-1(25),2,5(28),19,22(26),23-hexaen-7-yl]carbamoyl]-2-methyl-propyl]-N-methyl-3-[2-[4-(trifluoromethyl)pyrimidin-2-yl]ethynyl]cyclobutanecarboxamide], the IC50 in test [4] is 0.011 µM; with AGS cells (KRAS G12D), 0.743 µM; in the test on SW620 cells (KRAS G12V), 0.237 µM; at KRAS G12C-BRAF complex, 0.209 µM; in test [1], 0.021 µM; in test [2], greater than 10 µM. In test [3], this compound gave an IC50 of 0.031 µM.

As for `CO[C@@H](C)c1ncc(N2CCN(CC(F)(F)F)CC2)cc1-c1c2c3cc(c(F)cc3n1CC(F)(F)F)-c1csc(n1)C[C@H](NC(=O)[C@H](C(C)C)N(C)C(=O)N1CC(C#CC(F)(F)F)C1)C(=O)N1CCC[C@H](N1)C(=O)OCC(C)(C)C2` (atropisomer, axis not shown; (M)) [Example 18, N-[(1S)-1-[[(7S,13S)-24-fluoro-(20M)-20-[2-[(1S)-1-methoxyethyl]-5-[4-(2,2,2-trifluoroethyl)piperazin-1-yl]-3-pyridyl]-17,17-dimethyl-8,14-dioxo-21-(2,2,2-trifluoroethyl)-15-oxa-4-thia-9,21,27,28-tetrazapentacyclo[17.5.2.1^2,5.1^9,13.0^22,26]octacosa-1(25),2,5(28),19,22(26),23-hexaen-7-yl]carbamoyl]-2-methyl-propyl]-N-methyl-3-(3,3,3-trifluoroprop-1-ynyl)azetidine-1-carboxamide], the IC50 is 0.006 µM in test [4]; greater than 10 µM in the test with AGS cells (KRAS G12D); greater than 10 µM in the test on SW620 cells (KRAS G12V); 0.24 µM on KRAS G12C-BRAF complex; 0.051 µM in test [1]; greater than 10 µM in test [2]. Moreover, in test [3], the IC50 came to 0.048 µM.

For the compound `CCn1c(-c2cc(N3CCOCC3)cnc2[C@H](C)OC)c2c3cc(c(F)cc31)-c1csc(n1)C[C@H](NC(=O)[C@H](C(C)C)N(C)C(=O)[C@H]1C[C@@H](C#Cc3nccc(C(F)(F)F)n3)C1)C(=O)N1CCC[C@H](N1)C(=O)OCC(C)(C)C2` (atropisomer, axis not shown; (M)) [Example 21, cis-N-[(1S)-1-[[(7S,13S)-21-ethyl-24-fluoro-(20M)-20-[2-[(1S)-1-methoxyethyl]-5-morpholino-3-pyridyl]-17,17-dimethyl-8,14-dioxo-15-oxa-4-thia-9,21,27,28-tetrazapentacyclo[17.5.2.1^2,5.1^9,13.0^22,26]octacosa-1(25),2,5(28),19,22(26),23-hexaen-7-yl]carbamoyl]-2-methyl-propyl]-N-methyl-3-[2-[4-(trifluoromethyl)pyrimidin-2-yl]ethynyl]cyclobutanecarboxamide], the 50% inhibitory concentration (IC50) is 0.02 µM in test [4]; 0.231 µM with AGS cells (KRAS G12D); 0.222 µM in the test on SW620 cells (KRAS G12V); 0.085 µM against KRAS G12C-BRAF complex; 0.019 µM in test [1]; greater than 10 µM in test [2]. Further, half-maximal inhibition in test [3] (IC50) required 0.076 µM.

Consider `CO[C@@H](C)c1ncc(N2CCOCC2)cc1-c1c2c3cc(c(F)cc3n1CC(F)(F)F)-c1csc(n1)C[C@H](NC(=O)[C@H](C(C)C)N(C)C(=O)[C@H]1C[C@@H](C#CC(F)(F)F)C1)C(=O)N1CCC[C@H](N1)C(=O)OCC(C)(C)C2` (atropisomer, axis not shown; (M)) [Example 22, cis-N-[(1S)-1-[[(7S,13S)-24-fluoro-(20M)-20-[2-[(1S)-1-methoxyethyl]-5-morpholino-3-pyridyl]-17,17-dimethyl-8,14-dioxo-21-(2,2,2-trifluoroethyl)-15-oxa-4-thia-9,21,27,28-tetrazapentacyclo[17.5.2.1^2,5.1^9,13.0^22,26]octacosa-1(25),2,5(28),19,22(26),23-hexaen-7-yl]carbamoyl]-2-methyl-propyl]-N-methyl-3-(3,3,3-trifluoroprop-1-ynyl)cyclobutanecarboxamide], for which the 50% inhibitory concentration (IC50) is 0.012 µM in test [4]; greater than 10 µM in the test with AGS cells (KRAS G12D); 0.152 µM with SW620 cells (KRAS G12V); 0.036 µM at KRAS G12C-BRAF complex; 0.013 µM in test [1]; 0.172 µM in test [2]. The compound also returned an IC50 in test [3] of 0.078 µM.

The term IC50 denotes the midpoint of a concentration-inhibition curve. A higher IC50 goes with weaker potency in that assay.

The record behind these values is patent US20250257075A1, “MACROCYCLIC INHIBITORS OF KRAS FOR THE TREATMENT OF CANCER” (Hoffmann-La Roche Inc., priority 2022, published 2025).
